The target in the test is T1, rM3Ds (Rattus norvegicus, UniProt P08483, A177S/A238G/A489L/DEL261-437/DEL441-478/E258S/I253V/I483M/INS256[…]/K178L/K182A/K255R/K484R/K486H/L173F/L482A/M480V/R171S/R176Q/R179M/S481M/T174R/T181R/T257A/Y148C).
T1 construct: rM3Ds; 2A-EYFP (C); host or cells: AAV8R12-transduced striatal D1-MSNs of mice and cynomolgus macaques (in vivo and acute slices)
Put plainly: Rotation behavior and nigral c-Fos in mice after unilateral nigral AAV8R12-G88P7-rM3Ds-2A-EYFP and CNO. The test is classed as in vivo. As to conditions: for contraversive rotations (FIG. 7A): AAV8R12-G88P7-rM3Ds-2A-EYFP, n=8; for rotation behavior (FIG. 7C): control vector AAV8R12-G88P7-EYFP, n=5. Here is the method: Mice were anesthetized with sodium pentobarbital (Nembutal; 80 mg/kg, i.p.), and then placed into a stereotaxic device (KOPF). Eye cream was applied on both corneas to avoid dehydration. The skull above the targeted areas was thinned with a dental drill and carefully removed. Injections were conducted with a 10 μL syringe connected to a 33-Gauge needle (Neuros; Hamilton), using a microsyringe pump (Legato 130, KD Scientific). A total volume of 200 nL virus was injected into the SNr at a speed of 20 nL/min. The coordinates for the SNr were 3.4 mm posterior, 1.3 mm lateral, 4.8 mm ventral to the bregma.
Mice that were used in the behavioral experiments were then implanted with guide cannulas (KOPF) unilaterally aiming at the dorsomedial striatum (0.5 mm anterior, 1.5 mm lateral, 3.5 mm ventral to the bregma). The cannulas were fixed to the skull with dental cement. Stainless steel obturators were inserted into the guide cannulas and were replaced every other day to maintain the patency until infusions were made. Mice were allowed to recover from the surgery for at least 3 weeks before further studies.
Mice were individually handled for 10-20 seconds per day for at least 5 days to habituate them to the experimenter. The open field test was conducted in a test apparatus (50 cm×50 cm×50 cm) with an HD digital camera (Sony) positioned above the arena. On day one, mice were habituated to the apparatus for 10 minutes. On day 2, mice were administrated saline (0.1 mL i.p. or 200 nL intracranially [i.e.] through the guide cannulas). On day 3, mice were administrated with Clozapine-N-oxide (CNO, Hello Bio, HB1807; 0.3 mg/kg i.p. or 200 nL at 100 μM i.e.). All behavioral tests were conducted 30 minutes after injection. During the test, mice were allowed to freely explore the apparatus for 10 minutes. The behavioral data were analyzed with ANY-maze software (Stoelting Co.).

T1 sequence (P08483 other isoform, or with tags, fused parts or gaps with the stated changes): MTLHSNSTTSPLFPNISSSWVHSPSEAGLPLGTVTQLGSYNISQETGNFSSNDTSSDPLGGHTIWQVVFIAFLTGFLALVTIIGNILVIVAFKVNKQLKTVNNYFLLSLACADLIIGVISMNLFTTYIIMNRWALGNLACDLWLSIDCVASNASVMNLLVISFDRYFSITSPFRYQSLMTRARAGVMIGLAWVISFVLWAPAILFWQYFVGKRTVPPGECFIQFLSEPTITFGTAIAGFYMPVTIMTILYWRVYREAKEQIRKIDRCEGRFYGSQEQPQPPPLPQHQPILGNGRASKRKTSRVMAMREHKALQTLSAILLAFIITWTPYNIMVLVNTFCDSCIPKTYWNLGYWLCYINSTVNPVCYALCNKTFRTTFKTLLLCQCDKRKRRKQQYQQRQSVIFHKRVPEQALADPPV

Regarding `C[N+]1([O-])CCN(C2=Nc3cc(Cl)ccc3Nc3ccccc32)CC1` [CNO, clozapine N-oxide], for the setting “CNO i.p., 12 months after nigral AAV8R12-G88P7-rM3Ds-2A-EYFP”, the “rotations 12 months after viral infection” value is “consistently elevated contraversive rotations”. Further, the “contraversive rotations (FIG. 7A)” value reads like this: (CNO i.p., saline 45.95±4.972) 80.05±5.168; (CNO intracranial, saline 58.31±4.742) 80.77±4.187. Besides, the “rotation behavior (FIG. 7C)” value reads like this: (CNO i.p., saline 48.68±7.203) 46.88±7.497; (CNO intracranial, saline 41.11±12.73) 34.55±7.536. In addition, the “c-Fos+ cells in the SNr” value (CNO intraperitoneal, rM3Ds) is reported as “didn't increase the number of c-Fos+ cells in the SNr”.

For the origin of these results see patent US20250381307A1, “RETRO-AAV AND USE IN TREATING NEURODEGENERATIVE DISEASES” (priority 2023, published 2025).
